Measurements as given in US7718613B2, “Armed peptides” (priority 2001, dated 2010).
The star is where a group is joined. Biotin = O=C1N[C@H]2[C@H](CS[C@H]2CCCCC(=O)*)N1; Myristoyl = CCCCCCCCCCCCCC(=O)*

How the values were obtained:
[1] = Cytolytic activity of pH-responsive peptides on calcein liposomes at different pH; conditions: liposomes 4 μM lipid; 14 nM peptide 2, 20 nM peptide 7, 45 nM peptide 9; FIG. 4
Method: Liposomes encapsulating calcein dye were prepared by an extrusion method (Biochim. Biophys. Acta, 812 (1985) 55). Phophatidylcholine (50 mg) and cholesterol (13.08 mg) which had been dissolved in 4 ml of 50% v/v chloroform methanol solution were evaporated to form a lipid film in a round bottom flask. If it is essential to follow the fate of liposomes a lipohilic-dye such as DiI (50 μg) could be incorporated into the lipid film prior to hydration. The film was then hydrated with 4 ml of 120 mM calcein solution prepared in 10 mM sodium phosphate 20 mM Sodium chloride buffer pH 7.4. Liposomes were formed by 10 extrusion cycles through 0.2 micron or 0.1 um polycarbonate filters using the Liposofast 100 (Avestin) extruder device. The non encapsulated dye was removed by gel filtration on a PD-10 column using iso-osmotic buffer. The total lipid concentration of the liposomes was measured by the Stewart assay and adjusted to 3 mg per ml.
The cytolytic activity of pH-responsive peptides was followed by adding 2 or 3 μl of liposomes to a 2 ml assay volume and continually recording fluorescence. Buffers were made of 10 mM Na phosphate, 140 mM NaCl, 1 mM EDTA, 5 mM HEPES at several different pH values. […] In the experiments 2 ml of 10 mM Na phosphate, 140 mM NaCl, 1 mM EDTA, 5 mM HEPES buffer (at pH values indicated on the figure) containing liposomes (4 μM lipid) and (A) 14 nM peptide 2, (B) 20 nM peptide 7 (C) 45 nM peptide 9. In all cases peptides were added indicated by sharp dip in fluorescence were used. The pH values are as indicated for each trace. […] In general, it is well documented that many proteins including receptors, enzymes and antibodies has pH optimum usually closer to physiological value. On either side of the pH optimum the binding activity is reduced. However in general as activity profile is typically bell shape most proteins would tolerate at least a pH unit shift from optimum. Obviously the closer the results are to pH 7.4 the higher chances their are for efficient binding with target proteins or receptors.

[2] = Detection of biotin by pH arming (avidin cloaking, calcein liposomes)
Description: The modified peptide retained its activity and pH responsive properties upon modification with biotin. […] In FIG. 2, the curves from top to bottom represent (i) Peptide at pH 6.6, (ii) Peptide at pH 8 and (iii) background signal in the absence of any peptide. In FIG. 2A, the curves from top to bottom represent peptide in the presence of (i) 11 piccolos of biotin and 1,2 fold excess avidin at pH 6.6, (ii) 1.2 fold excess avidin at pH 6.6, (iii) 11 piccolos of biotin and 1.2 fold avidin at pH 8 and (iv) 1.2 fold excess avidin at pH 8.
The biotin assay using pH sensitive peptide was repeated in a glass vial which could be illuminated with a small torch or blue LED light source. Specifically, the vials contained 1.2 ml of biotinylated hybrid peptide (17 nM) in PBS buffer pH 6.2 containing calcein liposomes ([…]) and 1.2 fold excess avidin. Biotin was present in vials 3 to 6 in increasing concentration. Vials are as follows: (1) Background sample containing liposomes only, (2) no biotin, (3) 12 pmoles biotin, (4) 15 pmoles biotin, (5) 17 pmoles biotin, (6) 50 pmoles Samples were illuminated by simple 3 mm blue diodes from underneath the cuvettes. Photographs in the order top to bottom, were taken at indicated times from addition of liposomes. The actual fluorescence readings taken on a fluorimeter at five minute period are also shown graphically. Five minutes after the addition of all reagents the fluorescence became clearly visible to the naked eye compared to the background which remained low and constant allowing detection of 12 picomole of biotin rapidly without any instrumentation. (FIG. 3). However, instrumentation available in most laboratories (e.g., fluorescence, absorption, luminescence, electrochemical, biosensors), can also be used for quantitative analysis by changing the signal development molecules incorporated into the liposomes.
Peptides were prepared at concentrations ranging from 1 to 0.01 mg/ml, depending on the activity of peptide, in deionised. A stock solution of avidin (5 unit per ml, one unit of avidin binds 1 μg of biotin.) was prepared in PBS pH 7.4 buffer. Biotin, from a stock solution of 10 mg/ml prepared in DMSO, was diluted 10000 fold with water to obtain working concentrations of 1 μg/ml. A typical cytolytic assay was performed in a total volume of 2 ml PBS buffer containing calcein liposomes (5 μM lipid) as prepared above. The progress of dye leakage was continually followed using excitation and emission wavelengths of 490 and 520 nm respectively. Peptide of known concentrations-was added at certain time points and the solution was rapidly mixed while continuing to measure signal. For uncloaking the peptide activity using biotin, the additions were made to the buffer sequentially in the order avidin, 2 minute incubation with biotin followed by the addition of biotinylated peptide (44 nM). The mixture was incubated for filter 2 minutes and fluorescence measurement initiated. At selected time points liposomes (7 μM) were added and solution mixed. For the cloaking experiments the additions were essentially the same except no free biotin was added. The avidin concentration was a 1.2 fold excess units to ensure complete cloaking. For evaluating dual trigger switching properties of biotinylated peptide the liposomes (7 μM lipid) in 2 ml of buffer were treated with peptide. (2.8 nM) and fluorescence measured continually. For cloaking experiments and pH arming the peptide solution (2.8 nM) was incubated with a 1.2 fold excess of avidin solution for 3 minutes and the cytolytic assay performed at pH 6.6 and 8. For the uncloaking experiments the avidin was pre-incubated with 11 picomoles of biotin solution.
In the control sample, liposomes (4 μM lipid) were added to 1.2 ml solution of peptide (14 nM) pre-incubated with a 1.2 fold excess avidin. Test samples contained biotin at known concentrations. […]

[3] = Liposome-peptide integral complex: pH-triggered calcein release and stability; conditions: complex tested 40 minutes from preparation; FIG. 9
Description: A fatty acid incorporated on the N-terminal of peptide anchors the sequence with liposomes to form integral complex which can then be used as single stable reagent that can be triggered to release the contents-of the liposomoes when the pH is ideal (i.e physiological 7.4) or acidic (e.g 6.2). In the first instance we prepared the liposome-peptide complex at a predetermined ratio of lipid-to peptide (30:1) in pH 8 buffer using peptide 10. […] The complex between liposomes and peptide was formed by adding peptide to […] of 10 mM NaP containing 140 mM NaCl, 1 mM EDTA, 5 mM Hepes pH 8 buffer, containing 100 μl of calcein encapsulating liposomes. The mixture was incubated for 20 mins to form the complex prior to use. In order to ascertain that the lysis is occurring due to the formation of complex and not as the action of the peptide per se it was essential to purify the liposome-peptide complex. The peptide to lipid ratio in this complex is 1:30. The complex was applied to a Sepharose CL-6B column. Fractions corresponding to liposomes were collected as clearly visible to the eye. Aliquots of these fractions were then tested for lytic activity at acidic and physiological pH values. The key aim was to establish that the peptide is liposome associated and would thus be eluted with liposome fraction in the void volume. We used 100 μl complex (a column purified fraction) and followed the release of Calcein at two different pH values.
FIG. 8A. […] Upper curve pH 5.8. Lower curve pH 7.4.
2 ml buffer (10 mM Na phosphate, 140 mM NaCl, 1 mM EDTA, 5 mM HEPES)+50 μl purified complex. Lipsomes used were 50 nm extruded. Curves top to bottom are pH 6.2, 6.4, 6.7, 7.0, 7.4
Complex 20 μl liposomes+60 μl pH 8 buffer+20 μl peptide (0.1 mg/ml) prepared and used within 2 minutes. 10 μl was added to each of the cuvettes containing 2 ml buffers. Top curve pH 6.2 (triton was added towards the end indicated by sharp dip in fluorescence to check full lysis), the lower curve is at pH 7.4. Samples measured simultaneously.
5 μL of complex in 2 ml of buffer tested 20 minutes after preparation. Upper curve pH 6.2, Lower curve pH 7.4.
5 μL of complex in 2 ml of buffer tested 5 hrs after preparation. Upper curve pH 6.2 and lower curve pH 7.4.
5 μL of complex in 2 ml of buffer tested 24 hrs after preparation curve pH 6.2, Lower curve pH 7.4.

Rif-1 allografts = test: In vivo imaging of calcein release, dorsal window chamber with implanted tumours; design: species or system mice; conditions: for calcein fluorescence in tumour after armed complex relative to control liposomes: 100 μl complex via tail vein, untreated (No MIBG/glucose) mice, FIG. 10
Method: Similar methodology could be used for in vivo imaging of tumours whereby the payload is a marker or diagnostic reagent sequestered inside liposomes. For instance, when using the dye calcein, the pH released dye would be detected by increase in green fluorescence. […] Complex was prepared from biotinylated peptide (1) by adding 10 μl of pH 8 buffer to 41 μg of peptide to which was added 150 μl of Hposomes encapsulating calcein. The complex was incubated briefly and 100 μl was injected via the tail vein into mice with implanted tumours. The control mice were given equivalent levels of untreated liposomes. Using the dorsal window chamber model (Biophysics. 1997,1785-1790 & Nature Biotechnology 1999,17,1033-1035,) with implanted tumours (Rif-1 allografts) direct in vivo examination of the calcein in and around the tumours was made by fluorescence microscopy and computer controlled time-lapse images. […] Note that many tumours in animals and human, Rif-1 being one example, have an ambient pH that is slightly lower than that of normal tissue (Science 1980, 210,1253-1255 & Cancer Res 1989,4373-4384). This pathophysiological feature of tumours may be used for cancer detection. Thus unarming the complex which triggers below but close to physiological pH causes the release of dye almost immediately. This way the armed complexes can be used for in vivo detection of disease and particularly for the detection of cancer. Similarly, if the payload was combination of calcein dye and anticancer drug it would be possible to detect and treat with same formulation offering major advantages for diagnosis and treatment.

Row | Substance | pH of triggering (pH profile of calcein release from liposomes) [1] [pH] | cloaking of the complex by avidin binding ([2]; 1.2 fold excess avidin) | release in the presence of analyte (biotin) and avidin at acidic pH ([2]; biotin, 1.2 fold excess avidin, pH 6.6) | release in the presence of analyte (biotin) and avidin at pH 8 ([2]; biotin, 1.2 fold excess avidin, pH 8) | amount of biotin detected by naked eye ([2]; glass vial, blue LED, five minutes, PBS pH 6.2, 1.2 fold excess avidin) [picomole] | activity of peptide-liposome complex at acidic pH ([2]; pH 6.6, FIG. 2) | activity of peptide-liposome complex at alkaline pH ([2]; pH 8, FIG. 2) | triggering of complex [3] | calcein fluorescence in tumour after armed complex relative to control liposomes (Rif-1 allografts) | calcein fluorescence in tumour after armed complex relative to control liposomes (Rif-1 allografts; listed as biotinylated peptide (1)) | triggering pH relative to another peptide (Rif-1 allografts; mouse, in vivo)
1 | Myr-GIGAVLRVLTTG(TLLEFLLEELLEFL)KPALISWIRRRQQ-Amide [peptide 7] | ~7 |  |  |  |  |  |  |  |  |  | 
2 | Myristoyl-EAALAEALAEALAEGK(Biotin)PALISWIRRRLQQ-NH2 [peptide 1] |  | efficiently cloaked | triggered | only slight release | 12 | active | inactive | trigger in acidic media | significant release of payload | intense image | closer to physiological pH than peptide 9
3 | Myr-EAALAEALAEALAEGKPALISWIRRRLQQ-amide (Myristoyl-EAALAEALAEALAEGKPALISWIRRRLQQ-NH2; SMILES CCCCCCCCCCCCCC(=O)N[C@@H](CCC(=O)O)C(=O)N[C@@H](C)C(=O)N[C@@H](C)C(=O)N[C@@H](CC(C)C)C(=O)N[C@@H](C)C(=O)N[C@@H](CCC(=O)O)C(=O)N[C@@H](C)C(=O)N[C@@H](CC(C)C)C(=O)N[C@@H](C)C(=O)N[C@@H](CCC(=O)O)C(=O)N[C@@H](C)C(=O)N[C@@H](CC(C)C)C(=O)N[C@@H](C)C(=O)N[C@@H](CCC(=O)O)C(=O)NCC(=O)N[C@@H](CCCCN)C(=O)N1CCC[C@H]1C(=O)N[C@@H](C)C(=O)N[C@@H](CC(C)C)C(=O)N[C@H](C(=O)N[C@@H](CO)C(=O)N[C@@H](Cc1c[nH]c2ccccc12)C(=O)N[C@H](C(=O)N[C@@H](CCCNC(=N)N)C(=O)N[C@@H](CCCNC(=N)N)C(=O)N[C@@H](CCCNC(=N)N)C(=O)N[C@@H](CC(C)C)C(=O)N[C@@H](CCC(N)=O)C(=O)N[C@@H](CCC(N)=O)C(N)=O)[C@@H](C)CC)[C@@H](C)CC) [peptide 2] | ~7 |  |  |  |  |  |  |  |  |  | 
